Test results taken from US5714476A, “Process for preparing compositions containing neotrehalose” (Kabushiki Kaisha Hayashibara Seibutsu Kagaku Kenkyujo, priority 1990, dated 1998).

Assays:
[1] = test system: β-glucosidase; assay: Action of β-glucosidase; type: biochemical
[2] = test system: β-galactosidase; assay: Action of β-galactosidase; type: biochemical
[3] = Heat of dissolution; type: physicochemical; settings: crystal
From the text: The physicochemical properties of lactoneotrehalose were studied with a high-purity crystalline lactoneotrehalose specimen prepared by the method in Experiment 1-1.

[4] = Acidity of aqueous solution; type: physicochemical
From the text: (§1) The physicochemical properties of neotrehalose were studied with a high-purity crystalline neotrehalose specimen prepared by the method in Experiment 2-1.

[5] = Hygroscopicity and deliquescence; type: physicochemical; settings: crystal
From the text: as §1

[6] = test system: 7 week-old dd mice; assay: Acute toxicity, oral, mice; type: in vivo
From the text: A crystalline neotrehalose specimen, prepared by the method in Experiment 2-1, was orally administered to 7 week-old dd mice for acute toxicity test.

[7] = test system: trehalase; assay: Hydrolysis by trehalase; type: biochemical
From the text: as §1

[8] = Solubility in solvents; type: physicochemical
From the text: as §1

[9] = Solubility in water at 25° C.; type: physicochemical; settings: crystal in the form of anhydride, in 100 g water at 25° C.
From the text: as §1

[10] = test system: α-glucosidase; assay: Action of α-glucosidase; type: biochemical
From the text: as §1

[11] = Digestion test: oral load test, blood sugar and insulin levels; type: in vivo; settings: healthy volunteers
From the text: In accordance with the method described in H. Atsuji et al., Journal of Clinical Nutrition, Vol.41, Vol.2, pp.200-208 (1972), the load test by orally-administering to healthy volunteers a crystalline neotrehalose specimen prepared by the method in Experiment 2-1 was done, and their blood was sampled at prescribed time intervals and subjected to the measurements of the blood sugar and insulin levels. As control, glucose was used.

## OC[C@H]1O[C@@H](O[C@H]2[C@H](O)[C@@H](O)[C@H](O[C@H]3O[C@H](CO)[C@@H](O)[C@H](O)[C@H]3O)O[C@@H]2CO)[C@H](O)[C@@H](O)[C@H]1O [lactoneotrehalose, O-β-D-galactopyranosyl-(1→4)-O-β-D-glucopyranosyl α-D-glucopyranoside]
[1]
  products formed by the action of β-glucosidase: D-glucose and lactose are formed
[2]
  products formed by the action of β-galactosidase: D-galactose and neotrehalose are formed
[3]
  Heat of dissolution: 20.0 cal/g
[4]
  acidity of an aqueous solution of the crystal: neutral or slight acidity
[5]
  hygroscopicity and deliquescence: Free of hygroscopicity and deliquescence

## OC[C@H]1O[C@@H](O[C@H]2O[C@H](CO)[C@@H](O)[C@H](O)[C@H]2O)[C@H](O)[C@@H](O)[C@@H]1O [neotrehalose, O-α-D-glucopyranosyl β-D-glucopyranoside]
[6]
  toxicity: extremely low
[6]; up to 5 g of the specimen, higher dose was difficult to do
  animal death: no animal death was noted
[7]
  hydrolysis by trehalase: not hydrolyzed by trehalase
[8]; 0.1N hydrochloric acid
  Solubility in solvents: Readily soluble
[8]; 0.1N sodium hydroxide
  Solubility in solvents: Readily soluble
[8]; chloroform
  Solubility in solvents: insoluble
[8]; ethanol
  Solubility in solvents: scarcely soluble
[8]; ethyl acetate
  Solubility in solvents: insoluble
[8]; methanol
  Solubility in solvents: scarcely soluble
[8]; water
  Solubility in solvents: Readily soluble
[9]
  Solubility: Fifty-five
[10]
  product formed by the action of α-glucosidase: D-glucose is formed
[11]
  digestion, absorption, metabolism and utilization: readily digested, absorbed, metabolized and utilized into energy
  time of maximum level of blood sugar after the administration: 0.5 to 1 h
  time of maximum level of insulin after the administration: 0.5 to 1 h
[11]; control glucose
  blood sugar and insulin behaviour compared with glucose: behaved similarly as to glucose
[4]
  acidity of an aqueous solution of the crystal: neutral or slight acidity
[5]
  hygroscopicity and deliquescence: Free of hygroscopicity and deliquescence
